# Literature values as cited in paper PMC6844301, “Antibacterial activity of a Tribolium castaneum defensin in an in vitro infection model of Streptococcus pneumoniae” (Virulence, 2019).
# System: multi-resistant clinical isolate serotype 19A (AMR)
# Conditions: strain description of the AMR isolate in methods; method or ref not given
# Description: They were grown on sheep blood agar plates for 10 h and then transferred to Todd Hewitt Yeast (THY) medium (Carl Roth GmbH, Karlsruhe) at a density of 4 × 10^7 bacteria/ml (Ultraspec 10 Cell Densitometer, Amersham Biosciences). Upon reaching a density of 2 × 10^8 bacteria/ml, the bacterial suspension was diluted to 5 × 10^6 bacteria/ml. To esta ...
row,Molecule,resistant against (antibiotic concentration)
1,Penicillin,8 µg/mL
2,CO/N=C(\C(=O)N[C@@H]1C(=O)N2C(C(=O)O)=C(COC(C)=O)CS[C@H]12)c1csc(N)n1 [Cefotaxim],4 µg/mL
3,CCC[C@@H]1C[C@@H](C(=O)N[C@@H]([C@H]2O[C@H](SC)[C@H](O)[C@@H](O)[C@H]2O)[C@H](C)Cl)N(C)C1 [Clindamycin],256 µg/mL
4,CN(C)[C@@H]1C(O)=C(C(N)=O)C(=O)[C@@]2(O)C(O)=C3C(=O)c4c(O)cccc4[C@@](C)(O)[C@H]3C[C@@H]12 [Tetracycline],32 µg/mL
